Results taken from the NIST ThermoML archive (doi:10.1021/acs.jced.6b00680).
± gives the expanded uncertainty stated by the source.

How the values were obtained:
[1] = an = ratio of the nth substance listed; conditions: 100 kPa, Liquid, Concentric cylinders viscometry
[2] = 101.33 kPa, Liquid, Concentric cylinders viscometry

C[N+](C)(C)CCO.[Cl-] [choline chloride] + OCCO
[1], a2 = 2
Conditions | viscosity [mPa·s]
293.2 K | 60.9 ± 6.6
298.2 K | 51.4 ± 5.6
303.2 K | 44.3 ± 4.8
308.2 K | 38.1 ± 4.1
313.2 K | 33.5 ± 3.6
318.2 K | 29.4 ± 3.2
323.2 K | 26.1 ± 2.8
328.2 K | 23.3 ± 2.5
333.2 K | 21.1 ± 2.3
338.2 K | 19.3 ± 2.1
343.2 K | 17.6 ± 1.9
348.2 K | 16.3 ± 1.8
353.2 K | 15.2 ± 1.6

OCC(O)CO [glycerol]
[2]
Conditions | viscosity [mPa·s]
296.5 K | 1252 ± 140
302.8 K | 673.4 ± 76
315.8 K | 260.6 ± 29
323.2 K | 148.9 ± 16
332.7 K | 97.5 ± 11
343.2 K | 51.9 ± 5.6
348.2 K | 42.8 ± 4.6
354.2 K | 34.9 ± 3.8

NC(N)=O [urea] + C[N+](C)(C)CCO.[Cl-]
[1], a1 = 2
Conditions | viscosity [mPa·s]
293.2 K | 1685.8 ± 200
298.2 K | 1012.3 ± 120
303.2 K | 658.5 ± 74
308.2 K | 454.9 ± 51
313.2 K | 333.6 ± 37
318.2 K | 259.8 ± 29
323.2 K | 210.6 ± 23
328.2 K | 179.5 ± 20
333.2 K | 160.8 ± 18
338.2 K | 142.6 ± 16
343.2 K | 129 ± 14
348.2 K | 115.6 ± 13
353.2 K | 106.7 ± 12
